Consider three compounds from PMC7363588, “Mapping of the FGF14:Nav1.6 complex interface reveals FLPK as a functionally active peptide modulating excitability” (Physiological Reports, 2020).

One experiment addresses T1, FGF14 (Homo sapiens, UniProt Q92915).
T1 construct: aa 64–252); 6X His (N); made in house; host or cells: E. coli BL21 (DE3) pLys
T1 sequence (Q92915 64-252 isoform Q92915-2): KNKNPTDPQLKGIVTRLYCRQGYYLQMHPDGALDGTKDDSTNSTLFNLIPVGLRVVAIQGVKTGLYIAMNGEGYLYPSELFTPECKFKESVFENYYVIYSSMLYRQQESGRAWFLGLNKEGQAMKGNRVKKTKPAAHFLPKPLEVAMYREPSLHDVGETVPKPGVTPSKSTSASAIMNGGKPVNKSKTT
The experiment can be described thus: SPR binding to FGF14. The following applies: for binding to FGF14: SPR. The text has this: (§1) Plasmids used in this study derived from the following clones: human FGF14‐1b isoform (accession number: NM_175929.2) and human Nav1.6 (accession number: NM_014191.3). The CLuc‐FGF14, CD4‐Nav1.6‐NLuc, constructs and the pcDNA3.1 vector (Invitrogen, Carlsbad, CA) were engineered and characterized as previously described (Goetz et al., 2009; Shavkunov et al., 2012,2013,2015; Ali et al., 2016, 2018; Wadsworth et al., 2019). The plasmid pGL3 expressing full length Firefly (Photinus pyralis) luciferase was a gift from Dr. P. Sarkar (Department of Neurology, UTMB). For protein purification studies, cDNAs encoding FGF14‐1b (accession number NP_787125; aa 64–252) or the C‐terminal tail of Nav1.6 (accession number #NP_001171455; aa 1756–1939) were subcloned into suitable pET bacterial expression vectors (pET28a‐FGF14; pET30a‐Nav1.6) with a 6X His‐tag at the N‐terminal site; these plasmids were a gift of Dr. Moosa Mohammadi (NYU, Langone Medical Center). The mutation coding for FGF14^V160A was generated by site‐directed mutagenesis and PCR using FGF14‐1b as a template described previously (Ali et al., 2016). For electrophysiological studies FGF14‐GFP (human) and FGF14‐ΔNT‐GFP (human) were cloned into the GFP plasmid (pQBI‐fC2; Quantum Biotechnology Inc., Montreal, Canada) as previously described.
(§2) Upon transformation with corresponding cDNA clones, the recombinant proteins FGF14, FGF14^V160A and Nav1.6 C‐terminal tail were expressed in E. coli BL21 (DE3) pLys (Invitrogen) after induction with 0.1 mM isopropyl thio‐β‐D‐galacto‐pyranoside (IPTG) for 24 hr at 16°C. After induction with IPTG, bacterial cells were harvested and lysed by sonication at 4°C in lysis/binding buffer containing following components (mM): sodium phosphate 10 (prepared from 0.5 M of Na2HPO4 and NaH2PO4) + 3‐cholamidopropyl dimethylammonio 1‐propanesulfonate 0.1% pH 7.0 (for FGF14 proteins) + HEPES 25 + NaCl 150 + glycerol 10% (Nav1.6) pH 7.5 and containing 0.1 mM phenyl methyl sulphonyl fluoride (PMSF). The respective proteins were centrifuged at 18,000 g for 30 min at 4°C. For purification of FGF14 and FGF14^V160A, the supernatant was applied to preequilibrated heparin and the proteins were then eluted with NaCl 0.2–2.0 M in the elution (sodium phosphate 10 mM + NaCl 0.2–2.0 M pH 7.0) buffer. For purification of the Nav1.6 C‐tail, the supernatant was applied first to Ni^2+ NTA column and eluted with imidazole (200 mM). The Nav1.6 C‐tail was further purified using HiTrap QFF‐sepharose column (GE Healthcare Bio‐Sciences, Pittsburgh, PA) with a buffer containing Tris‐HCl 50 mM and eluted with NaCl (10–500 mM) at pH 7.5. Finally, all concentrated proteins were purified on an AKTA FPLC purifier using Superdex 200 Hiload 16 × 60 columns (GE Healthcare Bio‐Sciences) and equilibrated in Tris‐HCl 50 mM + NaCl 150 mM, pH 7.5 (Ali et al., 2016; Scala et al., 2018).
(§3) SPR experiments were performed on a Biacore T100 (GE Healthcare Bio‐Sciences, Pittsburgh, PA), and the interaction of FGF14 and Nav1.6 channel toward FLPK, PLEV and EYYV (1–100 µM) were studied at 25°C. To analyze the effects of FLPK, PLEV and EYYV on FGF14^WT (RU 16,000), FGF14^V160A (RU 18,000) and Nav1.6 C‐tail (RU 12,000), the proteins were immobilized on CM5 sensor chip using Acetate 5.5 with Amine Coupling Kit (Biacore GE Healthcare Bio‐Sciences). No protein was coupled to the control flow channel of the chip. Using a flow rate of 50 µl/min, FLPK, PLEV and EYYV (1–100 µM) diluted in HBS‐P^+ buffer were injected over the chip for 180 s, followed by injection of HBS‐P+ for 180 s to monitor dissociation, and finally the chip surface was regenerated with NaCl (200 mM). For each peptide injection, nonspecific responses (buffer only) were subtracted from experimental sensograms/traces prior to data analysis. Maximal equilibrium responses were plotted against peptide concentrations and association rate constant (kon), dissociation rate constatnt (koff) were determined. […]
On the technique in general: SPR reads the build-up and loss of mass on a sensor chip optically.

For another experiment, the target named is T2, Nav1.6 C-terminal tail (Homo sapiens, UniProt Q9UQD0).
T2 construct: aa 1756–1939); 6X His (N); made in house; host or cells: E. coli BL21 (DE3) pLys
T2 sequence (Q9UQD0 1797-1980): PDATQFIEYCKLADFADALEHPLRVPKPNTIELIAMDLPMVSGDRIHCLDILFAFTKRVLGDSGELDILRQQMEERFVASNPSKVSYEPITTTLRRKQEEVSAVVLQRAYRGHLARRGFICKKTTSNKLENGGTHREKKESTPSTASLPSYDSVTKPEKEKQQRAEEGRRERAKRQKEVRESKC
Put plainly: SPR binding to Nav1.6 C-terminal tail. The following applies: for koff, dissociation rate constant / kon, association rate constant: CM5, 25°C, 1–100 µM, RU 12,000, N.M. = not measurable; for binding to Nav1.6 C-terminal tail: peptide 1–100 µM.
Description: as §1, §2, §3

Where [1] appears, read: Biacore T100, CM5, 25°C, peptide 1–100 µM in HBS-P+ pH 7.4, FGF14 RU 16,000, N.M. = not measurable.

Usually koff stands for the first-order rate constant of dissociation. As a reminder, the Kd is the equilibrium constant for the complex coming apart.

Peptide text beside a SMILES is read from it.

Turning to “PLEV [tetrapeptide previously designed from FGF14:FGF14 dimer interface; docked with N-terminal acetylation and C-terminal amidation]”, on FGF14 (setting [1]), the “koff, dissociation rate constant” value was “N.M” and the “kon, association rate constant” value is “N.M”. Besides, the “binding to FGF14” value on FGF14 (peptide 1–100 µM) is “no appreciable affinity to either protein was detected”. Besides, on Nav1.6 C-terminal tail, the “koff, dissociation rate constant” value was “N.M”; the “kon, association rate constant” value is “N.M”; the “binding to Nav1.6 C-terminal tail” value is on record as “no appreciable affinity to either protein was detected”.

On to “EYYV [tetrapeptide previously designed from FGF14:FGF14 dimer interface; docked with N-terminal acetylation and C-terminal amidation]”, for which, on FGF14 (setting [1]), the “koff, dissociation rate constant” value is “N.M” and the “kon, association rate constant” value was “N.M”. Further, the “binding to FGF14” value on FGF14 (peptide 1–100 µM) is on record as “no appreciable affinity to either protein was detected”. Besides, at Nav1.6 C-terminal tail, the “koff, dissociation rate constant” value is listed as “N.M”; the “kon, association rate constant” value is on record as “N.M”; the “binding to Nav1.6 C-terminal tail” value is recorded as “no appreciable affinity to either protein was detected”.

In the case of `CC(=O)N[C@@H](Cc1ccccc1)C(=O)N[C@@H](CC(C)C)C(=O)N1CCC[C@H]1C(=O)N[C@@H](CCCCN)C(N)=O` [FLPK] (Ac-FLPK-NH2), at FGF14 (Biacore T100, CM5, 25°C, peptide 1–100 µM in HBS-P+ pH 7.4, FGF14 RU 16,000, N.M. = not measurable, read-out: koff, dissociation rate constant), the koff was determined as 0.000431 s⁻¹. Moreover, the Kd at FGF14 (Biacore T100, CM5, 25°C, peptide 1–100 µM, read-out: KD, equilibrium constant) worked out at 4.97 µM. Also, the “binding to FGF14” value on FGF14 (peptide 1–100 µM) is “only FLPK exhibited measurable affinity”. On Nav1.6 C-terminal tail, the “koff, dissociation rate constant” value is “N.M”; the “kon, association rate constant” value is “N.M”; the “binding to Nav1.6 C-terminal tail” value is on record as “no measurable binding”.
